26 compounds from patent US11078198B2 (BRISTOL-MYERS SQUIBB COMPANY, priority 2017, dated 2021) can be followed below.

The assay concerns the target T1, human FXR (Homo sapiens, UniProt Q96RI1).
T1 construct: expressed in transfected cells; host or cells: HEK293 cells stably carrying a 5xGal4-response-element firefly luciferase reporter, transiently transfected with pcDNA3.1-Gal4-FXR
T1 sequence (Q96RI1 262-486 limits assumed): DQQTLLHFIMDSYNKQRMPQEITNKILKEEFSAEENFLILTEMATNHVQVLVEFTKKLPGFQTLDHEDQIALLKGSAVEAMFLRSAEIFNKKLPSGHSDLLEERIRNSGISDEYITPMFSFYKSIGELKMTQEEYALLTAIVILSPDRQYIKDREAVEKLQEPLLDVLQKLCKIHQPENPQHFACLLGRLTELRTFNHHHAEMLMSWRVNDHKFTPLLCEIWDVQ
As to the kind of experiment: transient human FXR/Gal4-luciferase reporter assay. Conditions: Gal4-hFXR transfected HEK293 reporter cells; relative to 8 μM GW-4064. It is filed as cell-based. In short, it runs like this:
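HEK293 cells stably carrying a 5×Gal4-response-element firefly luciferase reporter, transiently transfected overnight with a CMV-driven Gal4 DNA-binding domain/human FXR ligand-binding domain fusion.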
A general note: Reporter assays use an easily measured gene product as a stand-in for the process of interest.

pEC50: −log10 of the molar value.

As usually defined, the pEC50 is −log10 of the EC50, conventionally taken in molar units. The compound `O=C(O)c1cc(F)c2nc(N3CCC4(C=C(c5c(C(F)F)cnn5-c5ccccc5C(F)(F)F)C4)CC3)sc2c1` [Example 213, 2-(2-(4-(Difluoromethyl)-1-(2-(trifluoromethyl)phenyl)-1H-pyrazol-5-yl)-7-azaspiro[3.5]non-1-en-7-yl)-4-fluorobenzo[d]thiazole-6-carboxylic acid] showed a pEC50 of 7.32. As for `O=C(O)c1cc2ccc(N3CCC4(C=C(c5c(-c6cnccc6C(F)(F)F)noc5C5CC5)C4)CC3)cc2cn1` [Example 160, 7-(2-(5-Cyclopropyl-3-(4-(trifluoromethyl)pyridin-3-yl)isoxazol-4-yl)-7-azaspiro[3.5]non-1-en-7-yl)isoquinoline-3-carboxylic acid], the figure is 5.79. As for `COc1cc(C(=O)NS(C)(=O)=O)nc2ccc(N3CCC4(C=C(c5c(-c6c(Cl)cncc6Cl)noc5C5CC5)C4)CC3)cc12` [Example 195, 6-(2-(5-Cyclopropyl-3-(3,5-dichloropyridin-4-yl)isoxazol-4-yl)-7-azaspiro[3.5]non-1-en-7-yl)-4-methoxy-N-(methylsulfonyl)quinoline-2-carboxamide], the figure is 7.12. `COc1cc(C(=O)O)nc2ccc(N3CCC4(C=C(c5c(-c6cccnc6C(F)(F)F)noc5C5CC5)C4)CC3)cc12` [Example 144, 6-(2-(5-Cyclopropyl-3-(2-(trifluoromethyl)pyridin-3-yl)isoxazol-4-yl)-7-azaspiro[3.5]non-1-en-7-yl)-4-methoxyquinoline-2-carboxylic acid] had a pEC50 of 6.81.

In turn, `O=C(O)c1cc(F)c2nc(N3CC4(C=C(c5c(-c6ccccc6C(F)(F)F)noc5C5CC5)C4)C3)sc2c1` [Example 34, 2-(6-(5-cyclopropyl-3-(2-(trifluoromethyl)phenyl)isoxazol-4-yl)-2-azaspiro[3.3]hept-5-en-2-yl)-4-fluorobenzo[d]thiazole-6-carboxylic acid] showed a pEC50 of 6.40. Regarding `COc1cc(C(=O)O)nc2ccc(N3CCC4(C=C(c5c(C6CCCCC6)noc5C5CC5)C4)CC3)cc12` [Example 147, 6-(2-(3-Cyclohexyl-5-cyclopropylisoxazol-4-yl)-7-azaspiro[3.5]non-1-en-7-yl)-4-methoxyquinoline-2-carboxylic acid], the pEC50 is 5.97. For `Cn1nc(N2CCC3(C=C(c4c(-c5c(Cl)cccc5Cl)noc4C4CC4)C3)CC2)c2ccc(C(=O)O)cc21` [Example 133, 3-(2-(5-Cyclopropyl-3-(2,6-dichlorophenyl)isoxazol-4-yl)-7-azaspiro[3.5]non-1-en-7-yl)-1-methyl-1H-indazole-6-carboxylic acid], the pEC50 is 5.93. The compound `CC(C)c1onc(-c2c(Cl)cncc2Cl)c1C1=CC2(CCN(c3ccc4nc(C(=O)O)cc(C(F)(F)F)c4c3)CC2)C1` [Example 95, 6-(2-(3-(3,5-Dichloropyridin-4-yl)-5-isopropylisoxazol-4-yl)-7-azaspiro[3.5]non-1-en-7-yl)-4-(trifluoromethyl)quinoline-2-carboxylic acid] showed a pEC50 of 7.43. As for `O=C(O)c1cc(F)c2nc(N3CCC4(C=C(c5c(-c6c(Cl)cccc6Cl)noc5C5CC5)CO4)CC3)sc2c1` [Example 3, 2-(3-(5-Cyclopropyl-3-(2,6-dichlorophenyl)isoxazol-4-yl)-1-oxa-8-azaspiro[4.5]dec-3-en-8-yl)-4-fluorobenzo[d]thiazole-6-carboxylic acid], the figure is 6.62. The figure for `O=C(O)c1ccc2cc(N3CCC4(C=C(c5c(-c6c(F)cccc6Cl)noc5C5CC5)C4)CC3)ccc2n1` [Example 156, 6-(2-(3-(2-Chloro-6-fluorophenyl)-5-cyclopropylisoxazol-4-yl)-7-azaspiro[3.5]non-1-en-7-yl)quinoline-2-carboxylic acid] is 6.49.

As for `Cc1cc(C(=O)O)nc(N2CCC3(C=C(c4c(-c5c(Cl)cccc5Cl)noc4C4CC4)C3)CC2)n1` [Example 120, 2-(2-(5-Cyclopropyl-3-(2,6-dichlorophenyl)isoxazol-4-yl)-7-azaspiro[3.5]non-1-en-7-yl)-6-methylpyrimidine-4-carboxylic acid], the negative logarithm of the EC50 (pEC50) is 5.86. Turning to `Cc1cc(N2CCC3(C=C(c4c(-c5c(Cl)cccc5Cl)noc4C4CC4)C3)CC2)ncc1C(=O)O` [Example 115, 6-(2-(5-Cyclopropyl-3-(2,6-dichlorophenyl)isoxazol-4-yl)-7-azaspiro[3.5]non-1-en-7-yl)-4-methylnicotinic acid], the pEC50 was 6.88. The figure for `COc1cc2nc(N3CCC4(C=C(c5c(-c6c(Cl)cncc6Cl)noc5C5CC5)C4)CC3)sc2cc1C(=O)O` [Example 51, 2-(2-(5-Cyclopropyl-3-(3,5-dichloropyridin-4-yl)isoxazol-4-yl)-7-azaspiro[3.5]non-1-en-7-yl)-5-methoxybenzo[d]thiazole-6-carboxylic acid] is 7.14; for `O=C(O)c1ccc(N2CCC3(C=C(c4c(-c5ccccc5C(F)(F)F)noc4C4CC4)C3)CC2)nc1` [Example 30, 6-(2-(5-Cyclopropyl-3-(2-(trifluoromethyl)phenyl)isoxazol-4-yl)-7-azaspiro[3.5]non-1-en-7-yl) nicotinic acid] it is 6.96. The figure for `O=C(O)c1ccc2nc(N3CCC4(C=C(c5c(-c6c(Cl)cccc6Cl)noc5C5CC5)C4)CC3)oc2c1` [Example 114, 2-(2-(5-Cyclopropyl-3-(2,6-dichlorophenyl)isoxazol-4-yl)-7-azaspiro[3.5]non-1-en-7-yl)benzo[d]oxazole-6-carboxylic acid] is 6.90. `O=C(O)c1ccc(N2CCC3(CC2)CC(c2c(-c4ccccc4C(F)(F)F)noc2C2CC2)C3)nc1` [Example 37]: the pEC50 is 5.85. The figure for `COc1cc(C(=O)O)cc2sc(N3CCC4(C=C(c5c(-c6c(Cl)cncc6Cl)noc5C5CC5)C4)CC3)nc12` [Example 59, 2-(2-(5-Cyclopropyl-3-(3,5-dichloropyridin-4-yl)isoxazol-4-yl)-7-azaspiro[3.5]non-1-en-7-yl)-4-methoxybenzo[d]thiazole-6-carboxylic acid] is 8.39; for `O=C(NS(=O)(=O)C1CC1)c1cc(F)c2nc(N3CCC4(C=C(c5c(-c6c(Cl)cncc6Cl)noc5C5CC5)C4)CC3)sc2c1` [Example 181, 2-(2-(5-Cyclopropyl-3-(3,5-dichloropyridin-4-yl)isoxazol-4-yl)-7-azaspiro[3.5]non-1-en-7-yl)-N-(cyclopropylsulfonyl)-4-fluorobenzo[d]thiazole-6-carboxamide] it is 7.22. The figure for `COc1cc(C(=O)O)nc2ccc(N3CCC4(C=C(c5c(-c6ccncc6Cl)noc5C5CC5)C4)CC3)cc12` [Example 109, 6-(2-(3-(3-Chloropyridin-4-yl)-5-cyclopropylisoxazol-4-yl)-7-azaspiro[3.5]non-1-en-7-yl)-4-methoxyquinoline-2-carboxylic acid] is 6.85; for `CCOC(=O)c1cc(C(F)(F)F)c2cc(N3CCC4(C=C(c5c(-c6c(Cl)cncc6Cl)noc5C5CC5)C4)CC3)ccc2n1` [Example 203, Ethyl 6-(2-(5-cyclopropyl-3-(3,5-dichloropyridin-4-yl)isoxazol-4-yl)-7-azaspiro[3.5]non-1-en-7-yl)-4-(trifluoromethyl)quinoline-2-carboxylate] it is 6.02. `CC(C)Oc1cc(C(=O)O)nc2ccc(N3CCC4(C=C(c5c(-c6c(Cl)cncc6Cl)noc5C5CC5)C4)CC3)cc12` [Example 111, 6-(2-(5-Cyclopropyl-3-(3,5-dichloropyridin-4-yl)isoxazol-4-yl)-7-azaspiro[3.5]non-1-en-7-yl)-4-isopropoxyquinoline-2-carboxylic acid] gave a negative logarithm of the EC50 (pEC50) of 7.33. `O=C(O)c1cc2ccc(N3CCC4(C=C(c5c(-c6c(F)cccc6F)noc5C5CC5)C4)CC3)cc2cn1` [Example 162, 7-(2-(5-Cyclopropyl-3-(2,6-difluorophenyl)isoxazol-4-yl)-7-azaspiro[3.5]non-1-en-7-yl)isoquinoline-3-carboxylic acid] had a pEC50 of 5.55. `O=C(O)c1cc(OC(F)F)c2cc(N3CCC4(C=C(c5c(-c6c(Cl)cncc6Cl)noc5C5CC5)C4)CC3)ccc2n1` [Example 73, 6-(2-(5-Cyclopropyl-3-(3,5-dichloropyridin-4-yl)isoxazol-4-yl)-7-azaspiro[3.5]non-1-en-7-yl)-4-(difluoromethoxy)quinoline-2-carboxylic acid] had a pEC50 of 7.80.

For the compound `Cn1nc(N2CCC3(C=C(c4c(-c5ccccc5OC(F)(F)F)noc4C4CC4)C3)CC2)c2ncc(C(=O)O)cc21` [Example 173, 3-(2-(5-Cyclopropyl-3-(2-(trifluoromethoxy)phenyl)isoxazol-4-yl)-7-azaspiro[3.5]non-1-en-7-yl)-1-methyl-1H-pyrazolo[4,3-b]pyridine-6-carboxylic acid], the pEC50 was 5.55.

Take `CS(=O)(=O)NC(=O)c1cc(OC(F)F)c2cc(N3CCC4(C=C(c5c(-c6ccccc6C(F)(F)F)noc5C5CC5)C4)CC3)ccc2n1` [Example 186, 6-(2-(5-Cyclopropyl-3-(2-(trifluoromethyl)phenyl)isoxazol-4-yl)-7-azaspiro[3.5]non-1-en-7-yl)-4-(difluoromethoxy)-N-(methylsulfonyl)quinoline-2-carboxamide]: the pEC50 is 7.89. As for `O=C(O)c1cccc(N2CCC3(C=C(c4c(-c5c(Cl)cccc5Cl)noc4C4CC4)C3)CC2)n1` [Example 4, 6-(2-(5-Cyclopropyl-3-(2,6-dichlorophenyl)isoxazol-4-yl)-7-azaspiro[3.5]non-1-en-7-yl) picolinic acid], the figure is 6.15.
